From patent publication US8822462B2, “Subunit selective NMDA receptor potentiators for the treatment of neurological conditions” (Emory University, priority 2009, dated 2014) come the findings set out here.

pEC50, pIC50: −log10 of the molar value.

In one assay the target is T1, NR1/NR2A (Homo sapiens, UniProt Q12879).
T1 construct: expressed in transfected cells; host or cells: Xenopus laevis oocytes
In words: Two electrode voltage clamp, Xenopus laevis oocytes expressing NR1/NR2A. Format: cell-based. The settings on record: read-out: 2A percent effect at the maximum tested concentration. As to the method: (§1) In the table above, potency is expressed as fitted EC50 value to average composite concentration-effect data constructed from current responses recorded under two electrode voltage clamp from Xenopus laevis oocytes expressing either NR1/NR2A, B, C, or D, GluR1, or GluR6. No effect means less than 20% change in response amplitude at 30 μM of drug.
For orientation: Two-electrode voltage clamp is typically applied to oocytes expressing channels or transporters.

The target of a further assay is T2, NR1/NR2C (Homo sapiens, UniProt Q05586+Q14957).
T2 construct: expressed in transfected cells; host or cells: Xenopus laevis oocytes
T2 sequence (Q14957 20-1233, species assumed, other chains not shown): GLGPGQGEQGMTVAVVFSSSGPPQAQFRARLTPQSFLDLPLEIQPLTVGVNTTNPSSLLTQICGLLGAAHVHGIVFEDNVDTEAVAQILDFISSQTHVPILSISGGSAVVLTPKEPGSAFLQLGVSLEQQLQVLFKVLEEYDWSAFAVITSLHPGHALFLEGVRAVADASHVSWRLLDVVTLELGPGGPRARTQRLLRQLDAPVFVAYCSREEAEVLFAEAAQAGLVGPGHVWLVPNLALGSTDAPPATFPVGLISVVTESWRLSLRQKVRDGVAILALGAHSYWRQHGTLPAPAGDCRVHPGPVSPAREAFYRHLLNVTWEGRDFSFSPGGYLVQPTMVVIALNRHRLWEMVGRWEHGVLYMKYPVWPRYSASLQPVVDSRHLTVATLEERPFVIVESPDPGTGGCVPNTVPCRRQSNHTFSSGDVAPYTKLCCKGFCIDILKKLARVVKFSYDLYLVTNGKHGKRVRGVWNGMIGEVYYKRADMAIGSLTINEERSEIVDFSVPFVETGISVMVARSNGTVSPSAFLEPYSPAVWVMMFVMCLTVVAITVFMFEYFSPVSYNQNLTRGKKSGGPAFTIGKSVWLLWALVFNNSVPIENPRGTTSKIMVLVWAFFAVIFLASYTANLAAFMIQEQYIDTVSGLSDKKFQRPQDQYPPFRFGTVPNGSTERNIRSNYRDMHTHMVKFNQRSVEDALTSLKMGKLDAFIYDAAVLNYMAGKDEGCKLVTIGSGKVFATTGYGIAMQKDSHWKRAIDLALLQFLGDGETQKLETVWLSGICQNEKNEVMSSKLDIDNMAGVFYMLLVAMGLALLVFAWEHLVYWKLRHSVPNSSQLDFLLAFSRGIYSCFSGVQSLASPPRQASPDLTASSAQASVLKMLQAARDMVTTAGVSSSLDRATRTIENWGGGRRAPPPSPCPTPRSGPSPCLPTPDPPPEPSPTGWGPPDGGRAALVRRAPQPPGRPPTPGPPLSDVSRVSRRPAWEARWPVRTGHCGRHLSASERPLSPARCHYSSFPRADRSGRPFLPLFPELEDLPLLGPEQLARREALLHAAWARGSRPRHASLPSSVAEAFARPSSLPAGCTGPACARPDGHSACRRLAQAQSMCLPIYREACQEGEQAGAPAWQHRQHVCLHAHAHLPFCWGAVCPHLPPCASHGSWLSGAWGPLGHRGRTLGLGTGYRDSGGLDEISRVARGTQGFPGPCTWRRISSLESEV
In words: Two electrode voltage clamp, Xenopus laevis oocytes expressing NR1/NR2C. The settings on record: for pIC50: fitted to composite concentration-effect data, read-out: 2C IC50; for Emax: maximal effect of fit, read-out: 2C Max. It is filed as cell-based.
Description: Values are mean+SEM (n=14-20). […] C is the closed level; broken line is the open level.
The Hill slope at both receptors for all analogues was greater than 1, consistent with a cooperative effect of binding at two sites.
as §1

Another assay concerns the target NR1/NR2D (Homo sapiens, UniProt O15399+Q05586). In words: Two electrode voltage clamp, Xenopus laevis oocytes expressing NR1/NR2D. The settings on record: for activity at 30 µM: read-out: 2D percent effect at the maximum tested concentration, at 30 μM; for activity at 100 µM: read-out: 2D percent effect at the maximum tested concentration, at 100 μM; for Emax: read-out: 2D Max.

The next assay concerns the target T3, NR1/NR2B (Homo sapiens, UniProt Q05586+Q13224).
T3 construct: expressed in transfected cells; host or cells: Xenopus laevis oocytes
In words: Two electrode voltage clamp, Xenopus laevis oocytes expressing NR1/NR2B. It is filed as cell-based. Conditions: read-out: 2B percent effect at the maximum tested concentration. As to the method: as §1

The mark [1] stands for this setting: read-out: 2C percent effect at the maximum tested concentration.

T3 sequence (Q13224 27-1484, species assumed, other chains not shown): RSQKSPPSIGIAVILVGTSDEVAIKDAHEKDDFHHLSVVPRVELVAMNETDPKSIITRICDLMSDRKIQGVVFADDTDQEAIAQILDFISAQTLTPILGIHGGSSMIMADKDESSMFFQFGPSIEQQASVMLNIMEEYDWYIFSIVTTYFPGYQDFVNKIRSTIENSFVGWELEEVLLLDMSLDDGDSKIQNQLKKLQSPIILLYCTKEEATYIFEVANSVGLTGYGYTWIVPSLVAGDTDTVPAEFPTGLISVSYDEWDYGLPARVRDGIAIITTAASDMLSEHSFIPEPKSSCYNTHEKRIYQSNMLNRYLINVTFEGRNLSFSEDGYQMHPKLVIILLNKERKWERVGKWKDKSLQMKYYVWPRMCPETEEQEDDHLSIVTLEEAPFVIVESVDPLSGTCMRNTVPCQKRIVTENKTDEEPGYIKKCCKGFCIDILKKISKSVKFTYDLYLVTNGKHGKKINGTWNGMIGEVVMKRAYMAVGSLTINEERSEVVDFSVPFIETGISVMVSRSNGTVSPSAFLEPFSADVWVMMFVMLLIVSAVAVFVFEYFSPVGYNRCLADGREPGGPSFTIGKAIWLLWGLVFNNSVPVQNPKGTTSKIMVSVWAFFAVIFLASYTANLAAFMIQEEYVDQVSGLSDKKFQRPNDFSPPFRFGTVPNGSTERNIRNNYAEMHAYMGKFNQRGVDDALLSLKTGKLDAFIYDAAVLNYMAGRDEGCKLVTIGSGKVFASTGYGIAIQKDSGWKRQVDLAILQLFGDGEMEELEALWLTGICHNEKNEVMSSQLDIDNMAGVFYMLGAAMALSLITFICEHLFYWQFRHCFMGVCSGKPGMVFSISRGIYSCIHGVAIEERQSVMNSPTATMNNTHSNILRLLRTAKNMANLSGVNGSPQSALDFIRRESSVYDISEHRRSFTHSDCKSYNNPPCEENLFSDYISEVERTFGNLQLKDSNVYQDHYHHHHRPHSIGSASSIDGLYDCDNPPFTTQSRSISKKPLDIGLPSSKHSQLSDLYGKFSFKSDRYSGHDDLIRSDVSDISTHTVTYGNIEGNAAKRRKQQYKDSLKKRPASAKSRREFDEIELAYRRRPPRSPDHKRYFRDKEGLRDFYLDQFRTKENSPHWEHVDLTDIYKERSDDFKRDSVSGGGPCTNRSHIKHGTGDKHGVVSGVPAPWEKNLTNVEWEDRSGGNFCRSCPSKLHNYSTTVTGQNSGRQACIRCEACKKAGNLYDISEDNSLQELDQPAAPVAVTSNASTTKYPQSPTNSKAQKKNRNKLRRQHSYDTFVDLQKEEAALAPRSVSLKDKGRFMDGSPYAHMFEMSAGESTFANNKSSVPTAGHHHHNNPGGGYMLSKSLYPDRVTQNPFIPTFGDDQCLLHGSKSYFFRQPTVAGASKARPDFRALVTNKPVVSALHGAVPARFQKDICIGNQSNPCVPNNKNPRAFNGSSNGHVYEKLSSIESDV
T1 sequence (Q12879 23-1464, species assumed, other chains not shown): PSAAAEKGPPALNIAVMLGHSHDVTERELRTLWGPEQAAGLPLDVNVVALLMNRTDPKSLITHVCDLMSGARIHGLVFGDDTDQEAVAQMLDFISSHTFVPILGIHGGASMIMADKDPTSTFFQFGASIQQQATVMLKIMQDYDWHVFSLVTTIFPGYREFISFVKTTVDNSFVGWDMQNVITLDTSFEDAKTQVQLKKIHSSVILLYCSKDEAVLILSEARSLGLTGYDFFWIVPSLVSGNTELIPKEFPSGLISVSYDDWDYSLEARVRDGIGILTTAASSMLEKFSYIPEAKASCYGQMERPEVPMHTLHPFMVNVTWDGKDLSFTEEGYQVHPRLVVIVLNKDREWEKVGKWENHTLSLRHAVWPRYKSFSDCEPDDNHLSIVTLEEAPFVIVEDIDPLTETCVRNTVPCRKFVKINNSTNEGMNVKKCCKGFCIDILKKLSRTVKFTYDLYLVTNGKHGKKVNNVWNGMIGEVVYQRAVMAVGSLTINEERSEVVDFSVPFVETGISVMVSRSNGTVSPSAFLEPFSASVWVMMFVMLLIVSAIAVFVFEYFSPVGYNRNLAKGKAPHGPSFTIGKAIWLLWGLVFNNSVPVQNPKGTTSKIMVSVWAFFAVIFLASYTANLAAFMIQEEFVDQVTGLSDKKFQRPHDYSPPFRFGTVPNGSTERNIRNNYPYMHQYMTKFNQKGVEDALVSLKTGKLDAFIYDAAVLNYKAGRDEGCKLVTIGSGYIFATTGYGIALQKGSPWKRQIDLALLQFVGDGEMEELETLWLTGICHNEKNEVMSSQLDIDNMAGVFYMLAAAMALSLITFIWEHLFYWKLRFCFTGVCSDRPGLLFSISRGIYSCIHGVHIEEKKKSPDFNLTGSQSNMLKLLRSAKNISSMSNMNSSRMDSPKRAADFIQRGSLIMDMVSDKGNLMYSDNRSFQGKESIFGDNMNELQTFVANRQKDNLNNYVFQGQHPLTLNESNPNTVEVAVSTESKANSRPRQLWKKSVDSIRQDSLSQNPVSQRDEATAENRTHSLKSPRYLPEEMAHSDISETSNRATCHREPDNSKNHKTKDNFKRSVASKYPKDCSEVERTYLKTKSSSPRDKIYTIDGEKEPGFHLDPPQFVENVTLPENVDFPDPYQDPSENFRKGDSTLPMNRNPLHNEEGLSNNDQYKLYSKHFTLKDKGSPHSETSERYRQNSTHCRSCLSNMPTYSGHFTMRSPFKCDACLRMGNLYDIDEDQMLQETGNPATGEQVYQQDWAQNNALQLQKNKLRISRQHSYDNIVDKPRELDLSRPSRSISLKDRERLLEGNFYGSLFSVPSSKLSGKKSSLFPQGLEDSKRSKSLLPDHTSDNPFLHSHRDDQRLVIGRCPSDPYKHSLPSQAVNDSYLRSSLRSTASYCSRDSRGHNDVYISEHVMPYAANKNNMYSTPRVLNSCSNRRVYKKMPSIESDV

Turning to `COc1cc2c(cc1OC)C(CCc1ccccc1)N(C(=O)c1cccc(F)c1)CC2` (centres unmarked) [1180-1], the activity at 100 µM on NR1/NR2A was determined as 110%. Also, the activity at 30 µM was determined as 96% on NR1/NR2C (at 30 μM, read-out: 2C percent effect at the maximum tested concentration) and 90% on NR1/NR2D.

For the compound `COc1cc2c(cc1OC)C(COc1ccccc1)N(C(=O)c1ccccc1)CC2` (centres unmarked) [1180-2], the activity at 100 µM at NR1/NR2B was determined as 101%; at NR1/NR2A it was 100%; on NR1/NR2C (setting [1]) it was 77%; on NR1/NR2D, 81%.

With `COc1ccc(OCC2c3cc(OC)c(OC)cc3CCN2C(=O)c2cccc(O)c2)cc1` (centres unmarked) [1180-3], the activity at 100 µM turned out to be 78% on NR1/NR2B, 126% at NR1/NR2A, 81% on NR1/NR2C (setting [1]) and 79% on NR1/NR2D.

Consider `COc1ccc(OCC2c3cc(OC)c(OC)cc3CCN2C(=O)c2ccco2)cc1` (centres unmarked) [1180-4], for which the activity at 100 µM was found to be 69% at NR1/NR2B, 105% on NR1/NR2A, 100% at NR1/NR2C (setting [1]) and 89% at NR1/NR2D.

Consider `COc1ccc(OCC2c3cc(OC)c(OC)cc3CCN2C(=O)c2ccno2)cc1` (centres unmarked) [1180-5], for which the activity at 100 µM was 86% at NR1/NR2B, 98% at NR1/NR2A, 83% on NR1/NR2C (setting [1]) and 81% at NR1/NR2D.

Consider `COc1cccc(OCC2c3cc(OC)c(OC)cc3CCN2C(=O)c2cccc(Cl)c2)c1` (centres unmarked) [1180-6], for which the activity at 100 µM came to 97% at NR1/NR2B, 93% at NR1/NR2A, 94% on NR1/NR2C (setting [1]) and 88% on NR1/NR2D.

With `COc1cccc(OCC2c3cc(OC)c(OC)cc3CCN2C(=O)c2ccccc2)c1` (centres unmarked) [1180-7], the activity at 100 µM is 92% on NR1/NR2B, 94% at NR1/NR2A, 75% on NR1/NR2C (setting [1]) and 75% on NR1/NR2D.

Take `COc1cc2c(cc1OC)C(COc1ccccc1OC)N(C(=O)c1cccc(Cl)c1)CC2` (centres unmarked) [1180-8]: the activity at 100 µM at NR1/NR2B came to 89%; at NR1/NR2A, 99%; on NR1/NR2C (setting [1]), 73%; at NR1/NR2D, 84%.

For the compound `COc1cc2c(cc1OC)C(COc1ccc(OC(F)(F)F)cc1)N(C(=O)c1cccc(Cl)c1)CC2` (centres unmarked) [1180-9], the activity at 100 µM on NR1/NR2B was 97%; on NR1/NR2A, 87%; on NR1/NR2C (setting [1]), 109%; on NR1/NR2D it was 99%.

In the case of `COc1ccc(OCC2c3cc(OC)c(OC)cc3CCN2C(=O)c2ccc(Cl)c(Cl)c2)cc1` (centres unmarked) [1180-10], at NR1/NR2C, the pIC50 was 5.52 and the Emax came to 134%. For the same compound, on NR1/NR2D, the negative logarithm of the IC50 (pIC50) was 5.10 and the Emax was found to be 172%.

For the compound `COc1ccc(OCC2c3cc(OC)c(OC)cc3CCN2C(=O)c2cccc(I)c2)cc1` (centres unmarked) [1180-11], the activity at 30 µM at NR1/NR2B is 82%; on NR1/NR2A it was 84%; on NR1/NR2D, 111%. Also, the pIC50 on NR1/NR2C was 4.51. In addition, the Emax on NR1/NR2C turned out to be 431%.

For `COc1ccc(OCC2c3cc(OC)c(OC)cc3CCN2C(=O)c2cccc(Cl)c2Cl)cc1` (centres unmarked) [1180-12], the activity at 30 µM stood at 90% at NR1/NR2B, 97% at NR1/NR2A and 109% on NR1/NR2D. At NR1/NR2C, the negative-log IC50 (pIC50) was 5.70. Moreover, the Emax on NR1/NR2C worked out at 133%.

Take `COc1cc2c(cc1OC)C(COc1ccc(SC)cc1)N(C(=O)c1cccc(Cl)c1)CC2` (centres unmarked) [1180-13]: the activity at 100 µM at NR1/NR2B was 67%; on NR1/NR2A it was 112%; on NR1/NR2C (setting [1]), 97%; on NR1/NR2D, 105%.

Regarding `COc1cc2c(cc1OC)C(COc1ccc(SC)cc1)N(C(=O)c1ccccc1)CC2` (centres unmarked) [1180-14], the activity at 100 µM at NR1/NR2B was 128%; on NR1/NR2A, 115%; at NR1/NR2C (setting [1]) it was 93%; at NR1/NR2D it was 103%.

As to `COc1ccc(OC[C@@H]2c3cc(OC)c(OC)cc3CCN2C(=O)c2cccc(Cl)c2)cc1` [1180-15], at NR1/NR2A, the activity at 30 µM was 128%. In addition, on NR1/NR2C, the pIC50 is 5.62 and the Emax was determined as 330%. Besides, at NR1/NR2D, the negative logarithm of the IC50 (pIC50) is 5.40 and the Emax was found to be 364%.

With `COc1cc2c(cc1OC)CN(C(=O)c1cccc(Cl)c1)CC2` [1180-29], the activity at 100 µM at NR1/NR2B worked out at 58%; at NR1/NR2A, 75%; at NR1/NR2C (setting [1]), 82%.

As to `COc1ccc(OCC2c3cc(OC)c(OC)cc3CCN2C(=O)c2ccccc2C)cc1` (centres unmarked) [compound 1263], the activity at 100 µM was 105% at NR1/NR2C (setting [1]) and 97% at NR1/NR2D.

For the compound `COc1ccc(OCC2c3cc(OC)c(OC)cc3CCN2C(=O)c2ccc(OC)cc2)cc1` (centres unmarked) [compound 1364], the activity at 100 µM at NR1/NR2B came out at 75%; on NR1/NR2C (setting [1]), 98%; on NR1/NR2D, 93%.

On to `C=C(OC)c1ccc(OCC2c3cc(OC)c(OC)cc3CCN2C(=O)c2ccc(OC)cc2)cc1` (centres unmarked) [compound 1367], for which the activity at 100 µM on NR1/NR2C (setting [1]) was determined as 104%; at NR1/NR2D, 93%.

`COc1ccc(OCC2c3cc(OC)c(OC)cc3CCN2C(=O)Nc2ccccc2)cc1` (centres unmarked) [compound 1407]: the activity at 100 µM was 86% on NR1/NR2C (setting [1]) and 88% on NR1/NR2D.

As for `COc1ccc(OCC2c3cc(OC)c(OC)cc3CCN2C(=O)c2ccc3c(c2)OCO3)cc1` (centres unmarked) [compound 1408], the activity at 100 µM was 95% at NR1/NR2C (setting [1]) and 88% at NR1/NR2D.

On to `COc1ccc(OCC2c3cc(OC)c(OC)cc3CCN2C(=O)c2ccccc2Cl)cc1` (centres unmarked) [compound 1409], for which the activity at 100 µM was 76% on NR1/NR2C (setting [1]) and 82% on NR1/NR2D.

Regarding `COC(=O)c1ccc(OCC2c3cc(OC)c(OC)cc3CCN2C(=O)c2cccc(Br)c2)cc1` (centres unmarked) [compound 1410], the activity at 100 µM at NR1/NR2C (setting [1]) was found to be 94%; at NR1/NR2D it was 89%.

Consider `COc1ccc(OCC2c3cc(OC)c(OC)cc3CCN2C(=O)Nc2ccc(Cl)cc2)cc1` (centres unmarked) [compound 1411], for which the values for the activity at 100 µM on NR1/NR2C (setting [1]) and on NR1/NR2D were 84% and 66%, respectively.

As to `COc1ccc(OCC2c3cc(OC)c(OC)cc3CCN2C(=S)Nc2ccccc2)cc1` (centres unmarked) [compound 1412], the figures for the activity at 100 µM on NR1/NR2C (setting [1]) and on NR1/NR2D were 93% and 79%, respectively.

Regarding `COc1ccc(OCC2c3cc(OC)c(OC)cc3CCN2C(=S)Nc2cccc(C)c2)cc1` (centres unmarked) [compound 1413], the activity at 100 µM on NR1/NR2C (setting [1]) worked out at 102%; at NR1/NR2D it was 74%.

For the compound `COc1ccc(OCC2c3cc(OC)c(OC)cc3CCN2C(=S)Nc2cccc(F)c2)cc1` (centres unmarked) [compound 1414], the activity at 100 µM came to 99% on NR1/NR2C (setting [1]) and 93% on NR1/NR2D.

In the case of `COc1ccc(OCC2c3cc(OC)c(OC)cc3CCN2C(=S)Nc2cccc(Cl)c2)cc1` (centres unmarked) [compound 1415], the values for the activity at 100 µM at NR1/NR2C (setting [1]) and on NR1/NR2D were 99% and 87%, respectively.

In the case of `COc1ccc(OCC2c3cc(OC)c(OC)cc3CCN2C(=S)Nc2cccc(Br)c2)cc1` (centres unmarked) [compound 1416], the activity at 100 µM amounted to 96% at NR1/NR2C (setting [1]) and 87% on NR1/NR2D.

For the compound `COc1ccc(OCC2c3cc(OC)c(OC)cc3CCN2C(=O)c2ccncc2)cc1` (centres unmarked) [compound 1510], the activity at 100 µM at NR1/NR2B amounted to 87%; at NR1/NR2C (setting [1]) it was 90%; on NR1/NR2D, 87%.

Regarding `COc1ccc(OCC2c3cc(OC)c(OC)cc3CCN2S(=O)(=O)c2cccc(Cl)c2)cc1` (centres unmarked) [compound 1511], the activity at 10 µM at NR1/NR2C (at 10 μM, read-out: 2C percent effect at the maximum tested concentration) came to 99%; on NR1/NR2D (read-out: 2D percent effect at the maximum tested concentration, at 10 μM), 96%.

On NR1/NR2D, `NCC(=O)O` [glycine, reference compound] gave a negative logarithm of the EC50 (pEC50) of 6.70.

Broadly, the pIC50 is the negative decadic logarithm of the IC50, by convention in mol/L. As a reminder, the pEC50 is the EC50 on a negative log10 scale, so that one unit is a factor of ten.
